The text below walks through data of paper PMC8546428, “Convergent olfactory trace amine-associated receptors detect biogenic polyamines with distinct motifs via a conserved binding site” (The Journal of Biological Chemistry, 2021).

Numbering of substitutions follows the chain as printed.

One assay has as its target T1, WT mTAAR9 (Mus musculus, UniProt Q5QD04).
T1 construct: Rho-tag (first 20 amino acids of bovine rhodopsin) (N); expressed in transfected cells; host or cells: Hana3A (HEK293-derived)
T1 sequence (Q5QD04 1-348): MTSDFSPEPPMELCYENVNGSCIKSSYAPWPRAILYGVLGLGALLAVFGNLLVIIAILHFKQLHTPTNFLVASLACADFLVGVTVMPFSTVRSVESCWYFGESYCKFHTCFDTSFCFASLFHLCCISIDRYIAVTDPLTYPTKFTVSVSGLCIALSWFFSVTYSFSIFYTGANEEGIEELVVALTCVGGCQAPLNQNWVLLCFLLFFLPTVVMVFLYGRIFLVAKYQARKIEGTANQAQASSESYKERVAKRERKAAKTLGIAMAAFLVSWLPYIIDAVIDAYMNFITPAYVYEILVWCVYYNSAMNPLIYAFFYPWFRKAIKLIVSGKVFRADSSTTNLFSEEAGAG
In words: CRE-luciferase reporter assay, wild-type mTAAR9 in Hana3A. It is filed as cell-based. The following applies: WT mTAAR9, Hana3A, CRE-luciferase; read-out: EC50 (mean ± S.D., n = 3). Here is the method:
(§1) Mammalian TAAR9 plasmids were transfected into Hana3A cells along with a cAMP-dependent luciferase reporter plasmid (CRE-Luc). Transfected cells were incubated with tested ligands, and luciferase activity was quantified with a […] substrate as a reporter for Golf-mediated TAAR activation. Luciferase activity was indicated by the luminescence value and normalized as a fold-increase over the response to the vehicle stimuli (mean ± S.D., n = 3). […] B, Hana3A cells expressing mouse, rat, human, cat, hamster, and rabbit TAAR9 were incubated with either vehicle or tested ligands (1 mM) and assayed for reporter activity. C, concentration-dependent luciferase activity in Hana3A cells expressing mouse, rat, and cat TAAR9 receptors stimulated with cadaverine, spermidine, and spermine.
(§2) The firefly luciferase and renilla luciferase activity was measured with a BioTek microplate reader following manufacturer’s instructions.
(In general: In a reporter assay the amount or activity of a reporter protein is the signal.)

Another assay has as its target T2, mTAAR9 Y6.51W (Mus musculus, UniProt Q5QD04, Y274W).
T2 construct: expressed in transfected cells; host or cells: Hana3A (HEK293-derived)
T2 sequence (Q5QD04 1-348 Y274W): T1 sequence (Q5QD04 1-348) with Y274W
In words: CRE-luciferase reporter assay, mTAAR9 mutant in Hana3A. The following applies: read-out: EC50 (mean ± S.D., n = 3). It is filed as cell-based.

In the next assay the target is T3, mTAAR9 E7.36D (Mus musculus, UniProt Q5QD04, E294D).
T3 construct: expressed in transfected cells; host or cells: Hana3A (HEK293-derived)
T3 sequence (Q5QD04 1-348 E294D): T1 sequence (Q5QD04 1-348) with E294D
The assay is described as above. It is filed as cell-based. The following applies: read-out: EC50 (mean ± S.D., n = 3).

A further assay has as its target T4, mTAAR9 W7.40F (Mus musculus, UniProt Q5QD04, W298F).
T4 construct: expressed in transfected cells; host or cells: Hana3A (HEK293-derived)
T4 sequence (Q5QD04 1-348 W298F): T1 sequence (Q5QD04 1-348) with W298F
The description is as above. The following applies: read-out: EC50 (mean ± S.D., n = 3). It is filed as cell-based.

The target of another assay is T5, mTAAR9 W7.40Y (Mus musculus, UniProt Q5QD04, W298Y).
T5 construct: expressed in transfected cells; host or cells: Hana3A (HEK293-derived)
The assay is described as above. It is filed as cell-based. The following applies: read-out: EC50 (mean ± S.D., n = 3).

In a further assay the target is T6, mTAAR9 W7.40A (Mus musculus, UniProt Q5QD04, W298A).
T6 construct: expressed in transfected cells; host or cells: Hana3A (HEK293-derived)
T6 sequence (Q5QD04 1-348 W298A): T1 sequence (Q5QD04 1-348) with W298A
Described as above. It is filed as cell-based. The following applies: read-out: EC50 (mean ± S.D., n = 3).

For another assay, the target named is T7, Rat TAAR9 (Rattus norvegicus, UniProt Q923Y6).
T7 construct: expressed in transfected cells; host or cells: Hana3A (HEK293-derived)
T7 sequence (Q923Y6 1-338): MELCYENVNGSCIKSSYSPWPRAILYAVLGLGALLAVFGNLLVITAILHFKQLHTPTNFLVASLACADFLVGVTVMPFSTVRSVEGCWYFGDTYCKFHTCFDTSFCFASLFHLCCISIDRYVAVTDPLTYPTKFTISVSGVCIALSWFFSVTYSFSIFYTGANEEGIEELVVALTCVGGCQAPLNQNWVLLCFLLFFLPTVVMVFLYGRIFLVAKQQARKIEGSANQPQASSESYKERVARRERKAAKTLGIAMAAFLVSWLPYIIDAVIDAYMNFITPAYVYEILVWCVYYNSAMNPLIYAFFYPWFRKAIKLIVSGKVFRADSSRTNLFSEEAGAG
In words: CRE-luciferase reporter assay in Hana3A. It is filed as cell-based. The following applies: rat TAAR9, ligand 1 mM, Fig. 1B. Here is the method: We examined the response of TAAR9s from rat, human, hamster, and rabbit to the stimulation of 1 mM amines using a well-established cAMP response element (CRE)-driven luciferase reporter assay based on Golf-mediated cAMP signal transduction ([5], [24]). In addition to the four mTAAR9 ligands, we included putrescine, which is also a polyamine and precursor of spermine/spermidine biosynthesis.
as §1, §2

In a further assay the target is T8, mTAAR8c (Mus musculus, UniProt Q5QD05).
T8 construct: expressed in transfected cells; host or cells: Hana3A (HEK293-derived)
In words: CRE-luciferase reporter assay in Hana3A, mouse olfactory TAARs. It is filed as cell-based. The following applies: ligand 500 μM, Fig. 1D. Here is the method:
as §1
(§3) We then sought to determine if other mouse olfactory TAARs are activated by the mTAAR9 ligands.
as §2

A further assay has as its target mTAAR5 (Mus musculus, UniProt Q5QD14). The following applies: mTAAR5, ligand 500 μM, Fig. 1D. Here is the method:
as §1, §3, §2

The target of a further assay is mTAAR7f (Mus musculus, UniProt Q5QD08). The following applies: ligand 500 μM, Fig. 1D. Here is the method:
as §1, §3, §2

T8 sequence (Q5QD05 whole entry): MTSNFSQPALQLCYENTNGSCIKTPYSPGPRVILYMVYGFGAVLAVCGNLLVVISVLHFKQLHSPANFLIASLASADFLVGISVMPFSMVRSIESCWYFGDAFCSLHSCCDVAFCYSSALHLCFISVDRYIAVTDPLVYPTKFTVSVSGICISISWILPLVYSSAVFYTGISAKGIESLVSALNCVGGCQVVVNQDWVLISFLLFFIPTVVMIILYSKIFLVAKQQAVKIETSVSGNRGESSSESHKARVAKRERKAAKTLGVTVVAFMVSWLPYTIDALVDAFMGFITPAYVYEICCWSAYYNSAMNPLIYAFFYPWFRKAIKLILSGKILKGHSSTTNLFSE
Chain of mTAAR7f (Q5QD08 whole entry): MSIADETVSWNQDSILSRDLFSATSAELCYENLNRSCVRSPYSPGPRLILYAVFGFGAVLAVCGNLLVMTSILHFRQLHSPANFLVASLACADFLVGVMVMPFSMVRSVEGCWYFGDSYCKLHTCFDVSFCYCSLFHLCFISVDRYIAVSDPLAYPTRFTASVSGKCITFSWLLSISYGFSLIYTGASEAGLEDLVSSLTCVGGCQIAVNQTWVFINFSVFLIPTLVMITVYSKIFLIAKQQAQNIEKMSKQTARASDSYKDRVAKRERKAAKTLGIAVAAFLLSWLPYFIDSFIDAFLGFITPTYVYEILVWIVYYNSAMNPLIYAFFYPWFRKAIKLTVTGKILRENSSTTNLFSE
T5 sequence (Q5QD04 whole entry W298Y): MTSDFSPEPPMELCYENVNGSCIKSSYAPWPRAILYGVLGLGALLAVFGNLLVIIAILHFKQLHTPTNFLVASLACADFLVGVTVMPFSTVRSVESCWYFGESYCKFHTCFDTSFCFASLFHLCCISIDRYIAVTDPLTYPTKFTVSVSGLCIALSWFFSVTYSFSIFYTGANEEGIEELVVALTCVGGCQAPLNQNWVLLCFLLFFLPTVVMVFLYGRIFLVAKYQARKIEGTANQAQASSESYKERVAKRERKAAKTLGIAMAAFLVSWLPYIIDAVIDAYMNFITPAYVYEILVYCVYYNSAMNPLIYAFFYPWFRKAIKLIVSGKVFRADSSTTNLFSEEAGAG
Chain of mTAAR5 (Q5QD14 whole entry): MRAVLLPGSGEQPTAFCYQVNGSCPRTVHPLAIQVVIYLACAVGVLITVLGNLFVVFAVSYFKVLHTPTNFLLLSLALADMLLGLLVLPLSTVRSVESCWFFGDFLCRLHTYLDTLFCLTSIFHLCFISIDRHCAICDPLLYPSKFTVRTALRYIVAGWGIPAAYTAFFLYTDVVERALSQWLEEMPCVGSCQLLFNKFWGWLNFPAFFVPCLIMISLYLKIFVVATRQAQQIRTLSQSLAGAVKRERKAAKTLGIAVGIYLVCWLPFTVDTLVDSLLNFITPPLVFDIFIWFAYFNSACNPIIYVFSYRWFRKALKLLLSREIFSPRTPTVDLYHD

`NCCCCNCCCN` [spermidine]: the EC50 (as a rule, the concentration at which the effect is half-maximal) on WT mTAAR9 was 43 ± 7 µM; on mTAAR9 Y6.51W it was over 1000 µM; at mTAAR9 E7.36D, 142 ± 43 µM; at mTAAR9 W7.40F, 9 ± 7 µM; on mTAAR9 W7.40Y, 2 ± 0.5 µM; on mTAAR9 W7.40A, 68 ± 48 µM. Moreover, at Rat TAAR9, the “reporter activity (activation of TAAR9)” value is “maximum responses”. In addition, the reporter activity entry on mTAAR8c is “modest activity”.

For `CCN(CC)CC` [triethylamine], the EC50 was 251 ± 82 µM on WT mTAAR9; 355 ± 80 µM on mTAAR9 Y6.51W; over 1000 µM on mTAAR9 E7.36D; 36 ± 16 µM on mTAAR9 W7.40F; over 1000 µM at mTAAR9 W7.40A. Moreover, the reporter activity result at mTAAR8c is “moderate activities”; on mTAAR5 it was “moderate activities”; at mTAAR7f, “robust responses”.
